Results taken from paper PMC10221466, “Isolation of Nocuolin A and Synthesis of New Oxadiazine Derivatives. Design, Synthesis, Molecular Docking, Apoptotic Evaluation, and Cathepsin B Inhibition” (Marine Drugs, 2023).
“Also recorded” adds a separate entry of the source. Read-outs that look alike come from different tables or passages of the source. Starred links: 1 amine or outer side, 2 acyl side, 3 side chain; linkers in the order of their positions; H or OH if unused. Positions of bridges follow the written chain, without caps; N, C: chain ends. Non-standard residues stand in square brackets, D forms with d. Residues, ends and D or L forms follow the SMILES beside them. Chains are numbered I, II in the order given. Actinocin(9to1) = Cc1c2oc3c(C)ccc(C(=O)[*:1])c3nc-2c(C(=O)[*:2])c(N)c1=O; NMeV = CN[C@H](C(=O)O)C(C)C; Sar = CNCC(=O)O

What was measured:
cathepsin B [1] = target: T1, cathepsin B (Mus musculus, UniProt P10605); assay: Inhibition of cathepsin B activity, TKPTS cells; assay type: cell-based; details: TKPTS non-tumour cells
T1 construct: Cathepsin B activity in the cell medium; endogenous in cells; host or cells: Hepa-1c1c7 (CRL-2026)
Description: (§1) For the determination of the cathepsin B’s inhibition activity, its superficial expression in two tumour cell lines (ACHN and Hepa-1c1c7 cells) and two non-tumour cell lines (TKPTS and FL83B cells) was evaluated by flow cytometry.
(§2) Cathepsin B activity in the cell medium was evaluated by using a fluorogenic substrate: Abz-Gly-Ile-Val-Arg~Ala-Lys(Dnp)-OH. This peptide substrate was purchased from Bachem AG (Bubendorf, Switzerland). The reactions were performed at 40 °C for 10 min [38]. Stock solutions of inhibitory compounds were prepared in DMSO (in a concentration of 10 mM). From these stock solutions, increasing concentrations of the inhibitory compounds (1 and 100 nM) were prepared. […] Fluorescence was measured with excitation/emission wavelength values of 320 and 420 nm, respectively, using the Cary Eclipse fluorescence spectrophotometer (Agilent Technologies, Melbourne, Australia).
(§3) All analyses were performed using version 9.0.0 of GraphPad Prism Software LLC from 1994–2020 (www.graphpad.com, accessed on 2 January 2023). Using non-linear regression, the values of 50% cytotoxic concentration (CC50) and 50% inhibitory concentration (IC50) were determined. In addition, a one-way ANOVA statistical analysis was performed to assess whether the differences between the values were statistically significant (p < 0.05; p < 0.001, Tukey’s multiple comparisons test). All experiments were performed in triplicate.

cathepsin B [2] = target: T1, cathepsin B; assay: Inhibition of cathepsin B activity, Hepa-1c1c7 cells; assay type: cell-based; details: Hepa-1c1c7 tumour cells
Description: as §1, §2, §3

C57BL/6 mice = assay: Acute toxicity in vivo; details: 4 mg/kg i.p.; for Physical aspect and weight after the third day of treatment: mice, day 3
Description: Adult male C57BL/6 mice weighing 25–35 g were purchased from the Centre for Laboratory Animals of the Faculty of Medicine from the University Autónoma of Madrid (Spain) and maintained under controlled temperature conditions (22 ± 2 °C), with a constant 12 h light-dark cycle and with access to food and water ad libitum.
Five groups (five mice per group) were selected for this study.
All animals were kept under observation for 7 days, during which their physical aspect, behaviour, and the number of deaths were recorded daily. The negative control (normal saline solution) received only the same quantity of the vehicle (distilled water). These tests were carried out in triplicate. All the surviving animals were euthanised at the end of the study, and their vital organs were individually observed by necropsy and checked for overt pathology.

cathepsin B [3] = target: T1, cathepsin B; assay: Inhibition of cathepsin B activity, FL83B cells; assay type: cell-based; details: FL83B non-tumour cells
Description: as §1, §2, §3

Hepa-1c1c7 cells = assay: SRB viability assay, Hepa-1c1c7 cells; assay type: cell-based; details: Mus musculus
Text: (§4) Two tumour cell lines, ACHN (Human kidney carcinoma) and Hepa-1c1c7 (Human liver carcinoma), and two non-tumour cell lines, TKPTS (Mus musculus kidney normal) and FL83B (Mus musculus liver normal), were used in this study. The cell lines were purchased by the company VALORALIA I MÁS D, SL. From LGC Standards, which is the exclusive distributor of American Type Culture Collection (ATTC) products. […] Likewise, Hepa-1c1c7 (CRL-2026 BSL 1) is an epithelial cell line that was isolated from the liver of a patient with hepatoma. On the other hand, TKPTS (CRL-3361 BSL 2) is a normal cell line with epithelial-like morphology that was isolated in 1997 from the proximal tubule of a mouse kidney. Finally, FL83B (CRL-2390 BSL 1) is a hepatocyte cell that was isolated from the liver of a 15- to 17-day-old foetal mouse in 1969. The cells were maintained in a Dulbecco's modified eagle medium (DMEM, Sigma-Aldrich St. Louis, USA) supplemented with 2 mM L-glutamine (AppliChem, Denmark), 10% foetal bovine serum (FBS, Sigma-Aldrich, USA), 100 units/mL of penicillin and 100 µg/mL of streptomycin (Fisher Scientific, Pittsburgh, USA) in culture flasks, in an incubator with a humidified atmosphere containing 5% CO2, at 37 °C under hypoxic conditions (1% O2), managing to mimic the tumour microenvironment in vivo.
(§5) Cells (200 µL, 2 × 10^4 cells/well) were seeded in 96-well plates and were cultured for 12 h at 37 °C under hypoxic conditions (1% O2). Subsequently, the samples dissolved in dimethyl sulfoxide (DMSO ≥ 99.9% Sigma-Aldrich, CAS Number 67-68-5) were added at different concentrations for 72 h. Actinomycin D (ACT ≥ 95% Sigma-Aldrich, CAS Number 50-76-0) was used as a positive control. Cells were then fixed with 10% trichloroacetic acid (TCA ≥ 99.0% Sigma-Aldrich, CAS Number 76-03-9) for 1 h at 4 °C. After washing with distilled water, 100 μL of 0.4% sulforhodamine B (SRB Dye content 75 % Sigma-Aldrich, CAS Number 3520-42-1) in 1% acetic acid (AcOH ≥ 99.0% Sigma-Aldrich, CAS Number 64-19-7) were added to each well and incubated for 20 min. After washing them three times with 1% TCA, the plates were air-dried, and stained cells were dissolved with 100 μL/well of 10 mM unbuffered tris(hydroxymethyl)aminomethane (Tris Base ≥ 99.9% Sigma-Aldrich, CAS Number 77-86-1). The optical density of the microplates was measured at 540 nm, using an ELISA plate reader, SpectraMax® i3, Molecular Devices.
(§6) All analyses were performed using version 9.0.0 of GraphPad Prism Software LLC from 1994–2020 (www.graphpad.com, accessed on 2 January 2023). Using non-linear regression, the values of 50% cytotoxic concentration (CC50) and 50% inhibitory concentration (IC50) were determined. […]

[4] = SRB viability assay, FL83B cells; assay type: cell-based; details: mouse, FL83B non-tumour cell line, hypoxic conditions (1% O2)
Text: as §4, §5, §6

ACHN cells = assay: SRB viability assay, ACHN cells; assay type: cell-based; details: Homo sapiens, 72 h
Text: as §4, §5, §6

[5] = SRB viability assay, TKPTS cells; assay type: cell-based; details: mouse, TKPTS non-tumour cell line, hypoxic conditions (1% O2)
Text: as §4, §5, §6

cathepsin B [6] = target: T2, cathepsin B (Homo sapiens, UniProt P07858); assay: Inhibition of cathepsin B activity, ACHN cells; assay type: cell-based; details: ACHN tumour cells
T2 construct: Cathepsin B activity in the cell medium; endogenous in cells; host or cells: ACHN (CRL-1611)
Description: as §1, §2, §3

[7] = Hepa-1c1c7 tumour cell line, SRB, 72 h, hypoxic conditions (1% O2), read-out: CC50
[8] = FL83B normal foetal liver hepatocyte cells
[9] = ACHN tumour cell line, SRB, hypoxic conditions (1% O2), read-out: CC50
[10] = TKPTS normal kidney proximal tubule cells

T1 sequence (P10605 80-339): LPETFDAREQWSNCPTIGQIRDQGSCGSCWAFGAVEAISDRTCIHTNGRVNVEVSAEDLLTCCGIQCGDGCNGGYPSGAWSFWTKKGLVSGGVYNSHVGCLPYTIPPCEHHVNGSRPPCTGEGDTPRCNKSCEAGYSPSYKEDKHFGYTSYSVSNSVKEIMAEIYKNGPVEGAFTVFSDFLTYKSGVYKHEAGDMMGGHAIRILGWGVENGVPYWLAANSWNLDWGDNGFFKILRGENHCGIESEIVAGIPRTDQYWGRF

Structure (SMILES)	Ki (cathepsin B [1]) [nM]	Ki (cathepsin B [2]) [nM]	Physical aspect and weight after the third day of treatment (C57BL/6 mice)	Ki (cathepsin B [3]) [nM]	CC50 (Hepa-1c1c7 cells; Hepa-1c1c7, 72 h) [nM]	CC50 at 72 h [4] [nM]	CC50 (ACHN cells; ACHN) [nM]	CC50 at 72 h [5] [nM]	CC50 (Hepa-1c1c7 cells; [7]) [nM]	CC50 at 72 h [4, 8] [nM]	Ki (cathepsin B [6]) [nM]	CC50 (ACHN cells; [9]) [nM]	CC50 at 72 h [5, 10] [nM]	In vivo toxicity (C57BL/6 mice; murine model, 4 mg/kg)
CCCNC(=O)[C@H]1O[C@@H]1C(=O)N[C@H](C(=O)N1CCC[C@H]1C(=O)O)[C@@H](C)CC (relative stereo) [CA 074, reference compound]	2.39 ± 0.12	5.99 ± 0.64	active and showed no apparent weight loss	3.08 ± 0.19										
Cc1c2oc3c(C)ccc(C(=O)N[C@@H]4C(=O)N[C@H](C(C)C)C(=O)N5CCC[C@H]5C(=O)N(C)CC(=O)N(C)[C@@H](C(C)C)C(=O)O[C@@H]4C)c3nc-2c(C(=O)N[C@@H]2C(=O)N[C@H](C(C)C)C(=O)N3CCC[C@H]3C(=O)N(C)CC(=O)N(C)[C@@H](C(C)C)C(=O)O[C@@H]2C)c(N)c1=O [Actinomycin, Actinomycin D, reference compound] (I: T[dV]P[Sar][NMeV] / II: T[dV]P[Sar][NMeV]; ester I:1-I:C, II:1-II:C; linker I:N-II:N via Actinocin(9to1))					14 ± 0.6	6 ± 0.6	9 ± 0.6	3 ± 0.5						
CCCCCC1=NN(C(=O)CCO)O[C@H](CCCCC)C1 [Compound 1, 1-[(6R)-5,6-dihydro-4,6-dipentyl-2H-1,2,3-oxadiazin-2-yl]-3-hydroxypropan-1-one]	2.13 ± 0.04	3.37 ± 0.24	active and showed no apparent weight loss	2.61 ± 0.02					1250 ± 60	2360 ± 100	3.06 ± 0.13	760 ± 90	1100 ± 50	
CCCCCC1=NN(C(=O)CCOC(C)=O)O[C@H](CCCCC)C1 [Compound 2, 3-[(6R)-5,6-dihydro-4,6-dipentyl-2H-1,2,3-oxadiazin-2-yl]-3-oxopropyl acetate]	0.49 ± 0.05	6.59 ± 0.65	weight loss and signs of disease (bowed backs, loss of hair shine, and slow movements)	0.66 ± 0.09					630 ± 50	1940 ± 80	5.67 ± 0.68	220 ± 30	1060 ± 40	
CCCCCC1=NN(C(=O)CCOC(=O)CCC(=O)O)O[C@H](CCCCC)C1 [Compound 3, 4-{3-[(6R)-5,6-Dihydro-4,6-dipentyl-2H-1,2,3-oxadiazin-2-yl]-3-oxopropoxy}-4-oxobutanoic acid]	3.29 ± 0.4	1.76 ± 0.24	active and showed no apparent weight loss	4.55 ± 0.81					910 ± 80	2800 ± 90	1.52 ± 0.13	730 ± 100	1620 ± 60	no in vivo toxicity; also recorded: did not show toxicity in vivo
